This passage reports ED50 and IC50 results from ChEMBL document CHEMBL1126401, “New potent enkephalin analogs containing trifluoromethylamino acid residues” (Bioorg Med Chem Lett, 1992).

Each structure is given as a SMILES string. *1 amine or outer side, *2 acyl side, *3 side chain or, on linkers, in order; H or OH if unused. Where a SMILES comes first, the peptide text is derived from it. [ ]: non-standard residue; d: D form. Nva(5,5,5-F3) = N[C@@H](CCC(F)(F)F)C(=O)O; X1 = O=C([C@@H](CCC(F)(F)F)N[*:1])[*:2]; X2 = O=C([C@H](CCCC(F)(F)F)N[*:1])[*:2]; NMeF = CN[C@@H](Cc1ccccc1)C(=O)O

In experiment [1] the test system is Mus musculus. The experiment in a line: In vivo analgesic activity of fluoro-enkephalin analog was determined against the compound at 10E-9 M/mouse; i.c.v. It counts as functional.
In experiment [2] the target is Mu-type opioid receptor (Rattus norvegicus, UniProt P33535). Briefly: Compound was evaluated for its binding affinity against enkephalin mu receptor using [3H]PL-017 as ligand in rat cerebrum in vitro.
Experiment [3] concerns the target Kappa-type opioid receptor (Cavia porcellus, UniProt P41144). The experiment in a line: Compound was evaluated for its binding affinity against enkephalin kappa receptor using [3H]U-69593 as ligand in guinea pig cerebrum in vitro.
Experiment [4] deals with Delta-type opioid receptor (Rattus norvegicus, UniProt P33533). Briefly: Compound was evaluated for its binding affinity against enkephalin delta receptor using [3H]DPDPE as ligand in rat cerebrum in vitro.
Chain of Delta-type opioid receptor (P33533 whole entry): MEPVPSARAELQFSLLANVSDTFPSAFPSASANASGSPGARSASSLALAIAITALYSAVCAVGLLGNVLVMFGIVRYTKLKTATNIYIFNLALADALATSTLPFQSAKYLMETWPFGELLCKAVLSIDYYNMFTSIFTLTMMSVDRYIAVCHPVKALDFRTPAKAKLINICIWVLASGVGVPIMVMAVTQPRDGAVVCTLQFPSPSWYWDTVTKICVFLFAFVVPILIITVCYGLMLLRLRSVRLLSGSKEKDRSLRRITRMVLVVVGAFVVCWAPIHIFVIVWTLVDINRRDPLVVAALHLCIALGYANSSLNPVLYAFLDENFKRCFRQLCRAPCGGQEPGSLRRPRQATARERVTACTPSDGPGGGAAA

Chain of Kappa-type opioid receptor (P41144 whole entry): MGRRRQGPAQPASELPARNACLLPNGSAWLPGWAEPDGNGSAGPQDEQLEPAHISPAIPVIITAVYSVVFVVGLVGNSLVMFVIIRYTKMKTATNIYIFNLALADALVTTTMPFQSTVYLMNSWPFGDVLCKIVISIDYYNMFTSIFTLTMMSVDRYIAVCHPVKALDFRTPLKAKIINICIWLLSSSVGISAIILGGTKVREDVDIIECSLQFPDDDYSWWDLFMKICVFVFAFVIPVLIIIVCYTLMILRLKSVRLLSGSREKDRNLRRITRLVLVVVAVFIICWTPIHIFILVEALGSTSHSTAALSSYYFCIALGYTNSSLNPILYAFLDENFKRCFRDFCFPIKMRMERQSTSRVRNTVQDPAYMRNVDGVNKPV
Chain of Mu-type opioid receptor (P33535 whole entry): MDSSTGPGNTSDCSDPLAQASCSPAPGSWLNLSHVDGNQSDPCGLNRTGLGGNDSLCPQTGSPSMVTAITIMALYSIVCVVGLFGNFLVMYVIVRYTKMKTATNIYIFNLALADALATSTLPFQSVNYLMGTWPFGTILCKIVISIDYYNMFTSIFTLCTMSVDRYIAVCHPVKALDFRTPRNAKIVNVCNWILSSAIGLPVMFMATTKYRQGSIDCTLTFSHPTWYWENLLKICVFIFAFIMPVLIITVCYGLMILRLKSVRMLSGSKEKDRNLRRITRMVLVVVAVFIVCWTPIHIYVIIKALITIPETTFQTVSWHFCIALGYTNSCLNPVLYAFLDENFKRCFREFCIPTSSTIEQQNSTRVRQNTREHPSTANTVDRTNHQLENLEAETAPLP

Molecule `CSCC[C@H](NC(=O)[C@H](Cc1ccccc1)NC(=O)CNC(=O)CNC(=O)[C@@H](N)Cc1ccc(O)cc1)C(=O)O` displayed an ED50 in experiment [1] of 7e-07 M mouse-1.
For `CCC[C@@H](NC(=O)[C@@H](N)Cc1ccc(O)cc1)C(=O)NCC(=O)N[C@@H](Cc1ccccc1)C(=O)N[C@@H](CCSC)C(N)=O`, the ED50 in experiment [1] was 4e-11 M mouse-1.
Still for that read-out and setting: next, `CSCC[C@H](NC(=O)[C@H](Cc1ccccc1)NC(=O)[C@H](CCC(F)(F)F)NC(=O)CNC(=O)[C@@H](N)Cc1ccc(O)cc1)C(N)=O` (H-YG[Nva(5,5,5-F3)]FM-NH2): 2.2e-08 M mouse-1; `CSCC[C@H](NC(=O)[C@H](Cc1ccccc1)NC(=O)[C@H](CCC(F)(F)F)NC(=O)CNC(=O)[C@@H](N)Cc1ccc(O)cc1)C(=O)O` (H-YG[Nva(5,5,5-F3)]FM-OH): 1.4e-07 M mouse-1.
The same measure, in the same setting: for `CSCC[C@H](NC(=O)[C@H](Cc1ccccc1)NC(=O)[C@@H](CCC(F)(F)F)NC(=O)CNC(=O)[C@@H](N)Cc1ccc(O)cc1)C(N)=O` (H-YG[X1]FM-NH2) the value was 1.2e-08 M mouse-1.
On to `CSCC[C@H](NC(=O)[C@H](Cc1ccccc1)NC(=O)CNC(=O)[C@H](CCC(F)(F)F)NC(=O)[C@@H](N)Cc1ccc(O)cc1)C(N)=O` (H-Y[Nva(5,5,5-F3)]GFM-NH2), for which the IC50 in experiment [2] is 0.5 nM; in experiment [3], 400 nM; in experiment [4], 2 nM. In addition, the ED50 in experiment [1] is reported as 7e-12 M mouse-1.
The molecule `CSCC[C@H](NC(=O)[C@H](Cc1ccccc1)N(C)C(=O)CNC(=O)[C@H](CCC(F)(F)F)NC(=O)[C@@H](N)Cc1ccc(O)cc1)C(N)=O` (H-Y[Nva(5,5,5-F3)]G[NMeF]M-NH2) showed an ED50 in experiment [1] of 2e-12 M mouse-1.
Same read-out and setting: next, `CSCC[C@H](NC(=O)[C@H](Cc1ccccc1)NC(=O)CNC(=O)[C@@H](CCC(F)(F)F)NC(=O)[C@@H](N)Cc1ccc(O)cc1)C(N)=O` (H-Y[X1]GFM-NH2): 2.5e-08 M mouse-1.
On the same count and under the same terms, next, `CSCC[C@H](NC(=O)[C@H](Cc1ccccc1)NC(=O)CNC(=O)[C@@H](CCC(F)(F)F)NC(=O)[C@@H](N)Cc1ccc(O)cc1)C(=O)O` (H-Y[X1]GFM-OH): 1.2e-07 M mouse-1; `CSCC[C@H](NC(=O)[C@H](Cc1ccccc1)NC(=O)CNC(=O)[C@H](CCCC(F)(F)F)NC(=O)[C@@H](N)Cc1ccc(O)cc1)C(N)=O` (H-Y[X2]GFM-NH2): 7e-11 M mouse-1; `CN1CC[C@]2(C)CC(Cc3ccc(O)cc32)C1` (single isomer, unassigned) [EPTAZOCINE]: 5e-11 M mouse-1.
Same read-out and setting: for `CN1CC[C@]23c4c5ccc(O)c4O[C@H]2[C@@H](O)C=C[C@H]3[C@H]1C5.Cl` [MORPHINE HYDROCHLORIDE] the value was 7e-11 M mouse-1.

One may read the IC50 as the concentration that inhibits the measured activity by half. A higher IC50 goes with weaker potency.
